Common to all, as to type: biochemical
One experiment concerns the target T1, TRKC (Homo sapiens, UniProt Q16288).
T1 construct: purchased Reaction Biology Europe GmbH
Kind of experiment: PanQinase kinase panel: TRKC. To be noted: read-out: INHIBITORY EFFECT @ 1 uM: TRKC. On the procedure:
(§1) Screening procedures were performed in accordance with the company's on-line protocol [accessed on-line Mar.
(§2) For each kinase, the median value of the cpm of three wells was defined as “low control” (n=3). This value reflects unspecific binding of radioactivity to the plate in the absence of a protein kinase but in the presence of the substrate. Additionally, for each kinase the median value of the cpm of three other wells was taken as the “high control,” i.e. full activity in the absence of any inhibitor (n=3). The difference between high and low control of each enzyme was taken as 100% activity.
(§3) As part of the data evaluation the low control of each kinase was subtracted from the high control value as well as from their corresponding “compound values”. The residual activity (in %) for each compound well was calculated by using the following formula: Res. Activity (%)=100×[(signal of compound−low control)/(high control−low control)].

The next experiment addresses T2, SRMS (Homo sapiens, UniProt Q9H3Y6).
T2 construct: purchased Reaction Biology Europe GmbH
Kind of experiment: PanQinase kinase panel: SRMS. To be noted: read-out: INHIBITORY EFFECT @ 1 uM: SRMS. On the procedure:
as §1, §2, §3

The next experiment concerns the target T3, MINK1 (Homo sapiens, UniProt Q8N4C8).
T3 construct: purchased Reaction Biology Europe GmbH
Kind of experiment: PanQinase kinase panel: MINK1. The settings on record: read-out: INHIBITORY EFFECT @ 1 uM: MINK1. The protocol: as §1, §2, §3

A further experiment has as its target T4, TXK (Homo sapiens, UniProt P42681).
T4 construct: purchased Reaction Biology Europe GmbH
T4 sequence (P42681 1-527): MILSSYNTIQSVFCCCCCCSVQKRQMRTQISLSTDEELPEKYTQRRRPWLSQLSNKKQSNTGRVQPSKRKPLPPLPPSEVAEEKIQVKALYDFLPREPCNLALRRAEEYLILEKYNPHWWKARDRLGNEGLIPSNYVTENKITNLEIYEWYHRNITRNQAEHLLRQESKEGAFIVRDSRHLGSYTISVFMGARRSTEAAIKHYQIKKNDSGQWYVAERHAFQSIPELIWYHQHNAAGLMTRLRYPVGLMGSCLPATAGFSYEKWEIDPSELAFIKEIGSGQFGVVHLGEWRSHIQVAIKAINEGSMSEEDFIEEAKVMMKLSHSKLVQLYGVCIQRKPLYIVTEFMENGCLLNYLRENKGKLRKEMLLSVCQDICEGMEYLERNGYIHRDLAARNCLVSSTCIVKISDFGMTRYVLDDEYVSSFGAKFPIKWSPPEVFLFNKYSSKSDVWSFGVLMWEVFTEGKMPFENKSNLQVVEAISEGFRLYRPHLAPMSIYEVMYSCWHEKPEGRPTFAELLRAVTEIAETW
Kind of experiment: PanQinase kinase panel: TXK. The settings on record: read-out: INHIBITORY EFFECT @ 1 uM: TXK. On the procedure: as §1, §2, §3

For a further experiment, the target named is BTK (Homo sapiens, UniProt Q06187). Nature of the experiment: BTK Kinase Enzyme System with ADP-Glo Kinase Assay. Further details: Recombinant full-length human BTK was expressed by baculovirus in Sf9 insect cells; His (N); purchased Promega V9071; host or cells: Sf9 insect cells (baculovirus). To be noted: 50 μM ATP. The protocol:
Inhibition of BTK activity was evaluated using the BTK Kinase Enzyme System in combination with the ADP-Glo™ Kinase Assay Kit (V9071, Promega), according to manufacturer's instructions. Luminescence was detected on a PerkinElmer EnVision Multimode Plate Reader.
Recombinant full-length human BTK was expressed by baculovirus in Sf9 insect cells using an N-terminal His tag, MW ˜78 kDa. Substrate solution contained Poly (4:1 Glu, Tyr) Peptide Substrate. BTK Kinase Buffer consisted of: 40 mM Tris, pH 7.5; 20 mM MgCl2; 0.1 mg/ml BSA; 2 mM MnCl2; 50 μM DTT. ADP-Glo™ Reagents were thawed at ambient temperature; components of BTK Enzyme System, ADP and ATP were thawed on ice. Final assay conditions used 3 ng BTK, 50 μM ATP, and 0.2 mg/mL substrate. Compounds were tested at 11 dose points in duplicates, in 3-fold dilution with top concentration at 10 μM.
Assay performance was evaluated according to the reference compound Staurosporine, which was within 3-5 fold of published results and between different tests, with a Z′ value larger than 0.5, where applicable.

A further experiment has as its target T5, BRK (Homo sapiens, UniProt Q13882).
T5 construct: purchased Reaction Biology Europe GmbH
Kind of experiment: PanQinase kinase panel: BRK. The settings on record: read-out: INHIBITORY EFFECT @ 1 uM: BRK. The protocol: as §1, §2
As part of the data evaluation the low control of each kinase was subtracted from the high control value as well as from their corresponding “compound values”.

The target in a further experiment is T6, MUSK (Homo sapiens, UniProt O15146).
T6 construct: purchased Reaction Biology Europe GmbH
T6 sequence (O15146 24-869): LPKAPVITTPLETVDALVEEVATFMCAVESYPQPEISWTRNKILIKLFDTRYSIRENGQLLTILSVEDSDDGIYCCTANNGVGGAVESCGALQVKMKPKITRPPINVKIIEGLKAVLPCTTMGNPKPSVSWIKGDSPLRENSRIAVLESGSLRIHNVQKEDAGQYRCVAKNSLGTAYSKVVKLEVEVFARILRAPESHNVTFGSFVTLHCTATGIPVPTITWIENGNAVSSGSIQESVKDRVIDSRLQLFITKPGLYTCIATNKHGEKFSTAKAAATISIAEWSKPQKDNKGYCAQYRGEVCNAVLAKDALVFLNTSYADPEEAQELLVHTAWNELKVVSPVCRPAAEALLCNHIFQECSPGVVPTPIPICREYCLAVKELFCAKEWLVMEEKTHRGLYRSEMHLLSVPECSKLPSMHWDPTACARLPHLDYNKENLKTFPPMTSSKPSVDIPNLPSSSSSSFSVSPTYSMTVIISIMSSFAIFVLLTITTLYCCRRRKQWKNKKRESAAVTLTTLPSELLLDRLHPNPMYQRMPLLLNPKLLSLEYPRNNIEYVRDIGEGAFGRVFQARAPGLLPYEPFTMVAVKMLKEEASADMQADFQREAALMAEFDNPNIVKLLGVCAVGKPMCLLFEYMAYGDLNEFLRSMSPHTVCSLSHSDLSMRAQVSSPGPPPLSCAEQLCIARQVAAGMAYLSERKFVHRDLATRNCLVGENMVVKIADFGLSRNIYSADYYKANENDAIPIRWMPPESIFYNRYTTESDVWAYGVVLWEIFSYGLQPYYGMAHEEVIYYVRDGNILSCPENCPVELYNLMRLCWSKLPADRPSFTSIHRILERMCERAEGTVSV
Nature of the experiment: PanQinase kinase panel: MUSK. On the procedure:
as §1, §2, §3

[1] abbreviates: read-out: INHIBITORY EFFECT @ 1 uM: MUSK.

This passage reports inhibition and IC50 results from US20250326753A1, “DUAL CXCR4-BTK INHIBITORS” (X4 Pharmaceuticals, Inc., priority 2022, published 2025).

Each structure is given as a SMILES string. Read-outs that look alike come from different tables or passages of the source.

T1 sequence (Q16288 32-839): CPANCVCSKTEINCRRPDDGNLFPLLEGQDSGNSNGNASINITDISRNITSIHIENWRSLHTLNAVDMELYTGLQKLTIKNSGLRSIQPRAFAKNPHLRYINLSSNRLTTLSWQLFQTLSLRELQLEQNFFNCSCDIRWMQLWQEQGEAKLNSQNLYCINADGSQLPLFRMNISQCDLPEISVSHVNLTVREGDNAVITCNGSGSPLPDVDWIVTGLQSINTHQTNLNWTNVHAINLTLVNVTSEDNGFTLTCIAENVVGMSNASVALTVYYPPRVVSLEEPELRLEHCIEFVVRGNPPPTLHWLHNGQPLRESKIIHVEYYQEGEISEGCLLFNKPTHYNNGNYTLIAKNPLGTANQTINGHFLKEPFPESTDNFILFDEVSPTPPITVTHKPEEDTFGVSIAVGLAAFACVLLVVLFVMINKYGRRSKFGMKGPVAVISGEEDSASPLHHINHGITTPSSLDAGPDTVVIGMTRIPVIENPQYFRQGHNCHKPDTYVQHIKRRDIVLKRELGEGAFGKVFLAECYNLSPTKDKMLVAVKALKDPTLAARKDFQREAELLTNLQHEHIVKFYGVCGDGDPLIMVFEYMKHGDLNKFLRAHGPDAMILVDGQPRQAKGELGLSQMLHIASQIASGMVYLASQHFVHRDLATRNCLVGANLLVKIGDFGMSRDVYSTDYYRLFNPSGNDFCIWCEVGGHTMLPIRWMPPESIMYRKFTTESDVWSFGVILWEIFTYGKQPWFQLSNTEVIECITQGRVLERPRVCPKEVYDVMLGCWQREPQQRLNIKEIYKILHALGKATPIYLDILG
T3 sequence (Q8N4C8 whole entry): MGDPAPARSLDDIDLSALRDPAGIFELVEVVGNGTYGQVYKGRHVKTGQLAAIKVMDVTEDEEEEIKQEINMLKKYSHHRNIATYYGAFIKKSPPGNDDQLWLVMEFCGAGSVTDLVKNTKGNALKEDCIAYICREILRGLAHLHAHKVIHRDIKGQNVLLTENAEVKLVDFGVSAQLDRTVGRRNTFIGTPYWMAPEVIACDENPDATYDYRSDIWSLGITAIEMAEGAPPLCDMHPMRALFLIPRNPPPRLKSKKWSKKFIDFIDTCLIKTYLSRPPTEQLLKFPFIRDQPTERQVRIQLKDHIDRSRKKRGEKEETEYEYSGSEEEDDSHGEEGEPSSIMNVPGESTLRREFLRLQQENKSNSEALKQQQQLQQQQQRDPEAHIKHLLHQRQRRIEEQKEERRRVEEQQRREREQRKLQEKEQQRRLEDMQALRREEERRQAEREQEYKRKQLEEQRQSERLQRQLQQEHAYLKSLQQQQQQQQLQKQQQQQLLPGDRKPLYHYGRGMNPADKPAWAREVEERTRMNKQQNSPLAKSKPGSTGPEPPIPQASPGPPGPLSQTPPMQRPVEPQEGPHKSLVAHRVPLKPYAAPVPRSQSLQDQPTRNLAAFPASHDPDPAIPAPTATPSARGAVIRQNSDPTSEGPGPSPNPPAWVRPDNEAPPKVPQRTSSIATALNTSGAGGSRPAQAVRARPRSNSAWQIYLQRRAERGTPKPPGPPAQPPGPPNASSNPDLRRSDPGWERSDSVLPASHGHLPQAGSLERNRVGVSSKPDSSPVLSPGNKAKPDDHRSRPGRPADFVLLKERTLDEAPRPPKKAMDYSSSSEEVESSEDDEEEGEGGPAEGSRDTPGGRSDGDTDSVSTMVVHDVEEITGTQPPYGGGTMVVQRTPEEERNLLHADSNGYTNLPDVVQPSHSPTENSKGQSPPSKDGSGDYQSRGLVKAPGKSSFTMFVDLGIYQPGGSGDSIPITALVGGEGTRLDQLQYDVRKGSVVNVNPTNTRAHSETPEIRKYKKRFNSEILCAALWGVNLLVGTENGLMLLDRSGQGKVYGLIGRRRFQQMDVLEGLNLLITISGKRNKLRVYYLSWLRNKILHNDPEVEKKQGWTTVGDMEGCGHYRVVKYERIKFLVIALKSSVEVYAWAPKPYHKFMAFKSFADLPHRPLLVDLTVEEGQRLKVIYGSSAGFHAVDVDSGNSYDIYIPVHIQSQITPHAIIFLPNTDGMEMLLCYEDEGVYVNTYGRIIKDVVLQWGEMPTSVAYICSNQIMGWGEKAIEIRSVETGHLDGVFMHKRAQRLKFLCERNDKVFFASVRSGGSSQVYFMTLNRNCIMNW
T2 sequence (Q9H3Y6 whole entry): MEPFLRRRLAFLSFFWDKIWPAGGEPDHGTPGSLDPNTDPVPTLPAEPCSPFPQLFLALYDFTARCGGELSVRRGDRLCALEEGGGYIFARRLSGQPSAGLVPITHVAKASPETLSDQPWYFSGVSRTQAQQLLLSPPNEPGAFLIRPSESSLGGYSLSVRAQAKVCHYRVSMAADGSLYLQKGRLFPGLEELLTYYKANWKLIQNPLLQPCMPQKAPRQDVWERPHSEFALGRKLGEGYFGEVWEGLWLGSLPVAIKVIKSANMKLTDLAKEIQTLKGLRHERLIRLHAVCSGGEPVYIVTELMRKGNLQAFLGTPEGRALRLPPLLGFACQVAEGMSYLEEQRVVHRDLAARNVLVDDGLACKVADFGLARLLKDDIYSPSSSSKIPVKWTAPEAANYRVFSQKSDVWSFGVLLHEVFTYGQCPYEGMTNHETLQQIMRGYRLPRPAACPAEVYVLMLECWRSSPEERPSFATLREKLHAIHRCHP
T5 sequence (Q13882 whole entry): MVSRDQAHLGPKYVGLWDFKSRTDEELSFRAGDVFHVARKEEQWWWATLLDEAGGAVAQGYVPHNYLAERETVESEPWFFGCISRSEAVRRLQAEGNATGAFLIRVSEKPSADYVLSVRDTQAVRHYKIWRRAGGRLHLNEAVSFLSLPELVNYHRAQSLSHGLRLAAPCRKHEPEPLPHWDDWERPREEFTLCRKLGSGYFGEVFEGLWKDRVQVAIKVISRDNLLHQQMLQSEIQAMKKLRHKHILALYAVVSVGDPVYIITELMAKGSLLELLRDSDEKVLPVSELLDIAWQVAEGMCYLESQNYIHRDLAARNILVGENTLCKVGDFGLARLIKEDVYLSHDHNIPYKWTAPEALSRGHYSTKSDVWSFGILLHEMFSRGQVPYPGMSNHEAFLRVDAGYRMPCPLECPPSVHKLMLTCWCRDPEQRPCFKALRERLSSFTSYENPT
Sequence of BTK (Q06187 whole entry): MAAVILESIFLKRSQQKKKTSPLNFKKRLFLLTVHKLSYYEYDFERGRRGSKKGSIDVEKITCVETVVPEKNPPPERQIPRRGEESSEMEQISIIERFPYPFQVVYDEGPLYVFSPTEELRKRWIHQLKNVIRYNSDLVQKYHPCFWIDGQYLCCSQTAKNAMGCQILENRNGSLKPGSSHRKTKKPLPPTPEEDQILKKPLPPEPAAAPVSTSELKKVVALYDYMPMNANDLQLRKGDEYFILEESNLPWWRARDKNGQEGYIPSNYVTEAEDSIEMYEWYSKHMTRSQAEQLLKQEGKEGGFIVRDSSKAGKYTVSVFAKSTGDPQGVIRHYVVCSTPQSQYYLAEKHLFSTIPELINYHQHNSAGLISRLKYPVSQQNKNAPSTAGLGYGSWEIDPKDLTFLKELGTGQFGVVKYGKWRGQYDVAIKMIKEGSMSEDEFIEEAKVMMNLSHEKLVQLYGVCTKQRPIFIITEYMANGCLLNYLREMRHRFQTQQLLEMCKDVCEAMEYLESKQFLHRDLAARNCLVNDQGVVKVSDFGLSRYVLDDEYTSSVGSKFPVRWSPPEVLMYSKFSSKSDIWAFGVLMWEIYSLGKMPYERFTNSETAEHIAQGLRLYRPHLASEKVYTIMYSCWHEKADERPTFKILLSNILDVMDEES

As to `O=C(c1ccc(Oc2ccccc2)cc1Cl)c1c[nH]c2ncnc(N[C@@H]3CC[C@@H](CO)OC3)c12` [ARQ-531, (2-chloro-4-phenoxyphenyl) (4-(((3R,6S)-6-(hydroxymethyl)tetrahydro-2H-pyran-3-yl)amino)-7H-pyrrolo[2,3-d]pyrimidin-5-yl) methanone], the inhibition at 1 µM was under 50% on TRKC, 90 to 100% at SRMS, 50 to 69% on MINK1 and 90 to 100% at TXK.

As to `Cc1cccnc1[C@H]1CCC[C@@H](c2ncccc2C)N1CCN1CCN(C(=O)c2ccc(-c3cc4c(-c5cccc(NC(=O)c6ccccc6)c5C)ncnc4[nH]3)cc2)CC1` [Compound I-10, N-(3-(6-(4-(4-(2-((2R,6S)-2,6-bis(3-methylpyridin-2-yl)piperidin-1-yl)ethyl)piperazine-1-carbonyl)phenyl)-7H-pyrrolo[2,3-d]pyrimidin-4-yl)-2-methylphenyl)benzamide], the inhibition at 1 µM was under 50% on TRKC; under 50% at SRMS; under 50% on BRK; under 50% on MINK1; under 50% on TXK; 50 to 89% on MUSK (at 1 μM, read-out: inhibition of MUSK). The inhibition at 1 µM at MUSK (setting [1]) was 70 to 89%. Moreover, the IC50 at BTK fell in the range of 1 to 100 nM.

`Cc1cc(-c2ccnc(Nc3cnn(CCN4[C@@H](c5ncccc5C)CCC[C@H]4c4ncccc4C)c3)n2)ccc1CNC(=O)N1CC(OC(C)C)C1` [Compound I-11]: the IC50 at BTK lay within 1 to 100 nM.

`Cc1cccnc1[C@H]1CCC[C@@H](c2ncccc2C)N1CCCCNC(=O)[C@@H]1CC[C@@H](Nc2ncnc3[nH]cc(C(=O)c4ccc(Oc5ccccc5)cc4Cl)c23)CO1` [Compound I-16]: at BTK, the IC50 was in the range of 1 to 100 nM.

As to `Cc1cccnc1[C@H]1CCC[C@@H](c2ncccc2C)N1CCCCNC(=O)OC[C@@H]1CC[C@@H](Nc2ncnc3[nH]cc(C(=O)c4ccc(Oc5ccccc5)cc4Cl)c23)CO1` [Compound I-18], the IC50 on BTK lay in the range of 1 to 100 nM.

Consider `COc1ccc(F)cc1C(=O)NCc1ccc(-c2nn([C@@H](C)C(F)(F)F)c(N)c2C(N)=O)cc1` [LOXO-305, pirtobrutinib], for which the inhibition at 1 µM on TRKC was 50 to 69%; on SRMS it was under 50%; at BRK, 70 to 89%; at MINK1, under 50%; on TXK, 50 to 69%; at MUSK (setting [1]), under 50%.

In the case of `C=CC(=O)N1CCC([C@@H]2CCNc3c(C(N)=O)c(-c4ccc(Oc5ccccc5)cc4)nn32)CC1` [Zanubrutinib, (7S)-2-(4-phenoxyphenyl)-7-(1-prop-2-enoylpiperidin-4-yl)-4,5,6,7-tetrahydropyrazolo[1,5-a]pyrimidine-3-carboxamide], the inhibition at 1 µM at TRKC was under 50%; on SRMS it was under 50%; on BRK, 90 to 100%; on MINK1, under 50%; on TXK, 90 to 100%; at MUSK (setting [1]), under 50%.

The IC50 is the midpoint of a concentration-inhibition curve.
